Results reported in article PMC11801715, “Activating PKC-ε induces HIV expression with improved tolerability” (PLOS Pathogens, 2025).

Assays:
PKC-θ = PKC-θ (Homo sapiens, UniProt Q04759); experiment: Immunofluorescence of endogenous PKC in Jurkat cells; type: cell-based; details: 30 minutes
Procedure: Cells were cultured in RPMI medium supplemented with 10% heat-inactivated FBS and penicillin-streptomycin. For treatment, cells were incubated in either DMSO or C-232A for 30 minutes at 37 °C. Cells were fixed in ice-cold methanol, washed, and blocked with 2% BSA for 60 minutes at RT. Blocked cells were stained with either a 5 μg/mL primary PKC-θ antibody (R&D Systems, catalog MAB4368) or a 1:100 primary PKC-α antibody (R&D Systems, catalog MAB5340SP) in PBS with 1% BSA at 22 °C for 90 minutes. Donkey anti-mouse IgG antibody conjugated with Alexa Fluor 647 (Thermo Fisher Scientific, catalog A-31571) at 2 μg/mL and goat anti-rat IgG H&L antibody conjugated with Alexa Fluor 488 (Abcam, catalog ab150157) were used as secondary antibodies, respectively, in PBS with 1% BSA at 22 °C for 60 minutes. After immunostaining, the cell suspension was mixed (1:1) with ProLong Gold antifade reagent containing DAPI (Life Technologies, catalog P36935) and 5 μL of the mix was applied onto a microscope slide, covered with a coverslip, and cured overnight in the dark at RT. Samples were imaged with a Leica SP8 confocal microscope. Image analysis was performed using ImageJ software.

PKC-β1 = PKC-β1 (Homo sapiens, UniProt P05771); experiment: PKC isoform translocation in A549-tGFP cells; type: cell-based; parameters: host or cells: A549; details: 60 minutes
Procedure: (§1) Using these findings we embarked on new designs for DAG-lactones with additional substituents from the ester moiety in combination with a few olefin substituents. A description of this effort is reported elsewhere.
(§2) Cellular translocation of PKC isoforms upon activation was determined in 8 A549 cell lines, each expressing a single PKC isoform fused to tGFP (PhenoVista Biosciences). Cells were plated in 384-well plates (80 μL/well) at 10^5 cells/mL in RPMI with 10% FBS and rested overnight. PKC agonist(s) were serially diluted at 1:3 steps in DMSO and added to the cells. After 60 minutes in an incubator at 37 °C, 5% CO2, cells were stained with Hoechst-33342 and fixed with 2% paraformaldehyde for 30 minutes at 4 °C. Cells were then stained with wheat germ agglutinin conjugated to AlexaFluor647 (WGA-647) for 10 minutes at 4 °C, washed to remove excess dye and imaged with Cellomics Array Scan (Thermo Fisher) at room temperature (RT). Images were analyzed using Cellomics automated image analysis algorithm. Plasma membrane translocation was quantified using the ratio between the average fluorescence in the areas at the cell edge defined by WGA-647 and the cytoplasm region.

PKC-β2 = PKC-β2 (Homo sapiens, UniProt P05771); experiment: PKC isoform translocation in A549-tGFP cells; type: cell-based; parameters: host or cells: A549; details: 60 minutes
Procedure: as §1, §2

PKC-γ = PKC-γ (Homo sapiens, UniProt P05129); experiment: PKC isoform translocation in A549-tGFP cells; type: cell-based; parameters: host or cells: A549; details: 60 minutes
Procedure: as §1, §2

HIV p24 = HIV p24 digital immunoassay in culture supernatants; type: cell-based, HIV-1; details: Human immunodeficiency virus 1, CD4+ T, read-out: p24 EC50
Procedure: The fully automated Quanterix HD-X analyzer for single molecule detection was utilized to measure HIV p24 levels in culture supernatants (stored frozen at –80°C until use). Upon thaw, Triton X-100 was added to a final concentration of 1% to culture supernatants, incubated for 1 hour at room temperature before analysis on the same day. An in-house standard using purified HIV p24 protein was utilized in place of the standard provided in the p24 Simoa kit (Quanterix, catalog 102215). Briefly, p24 protein purchased from Advanced Biotechnologies, catalog 14-101-050, was reconstituted to 200 ng/mL in complete RPMI and stored at –80 in smaller aliquots. Standard curve was made in a […] dilution series from 40000 to 1.8 fg/ml in complete RPMI with 1% Triton X-100. All other assay reagents and assay reaction conditions followed the manufacturer’s protocol. p24 concentration in experimental samples was calculated based on a p24 calibration curve with 4-parameter curve fitting.

[1] = system: cellular p24 in CD4+ T cells; experiment: Ex vivo HIV-Flow assay in CD4+ T cells; type: cell-based, HIV-1; details: 500 nM in HIV-Flow, 72 hours
Procedure: Isolated CD4^+ T cells from ART-suppressed people with HIV were cultured in RPMI medium containing 10% FBS, 100 nM efavirenz, and 1 μM tenofovir alafenamide at 2 million cells per mL. These cells were subsequently stimulated with DMSO (vehicle control), 500 nM PKC agonist C-233, or 162 nM PMA and 1 µg/mL ionomycin. The cells were cultured at 37°C, 5% CO2 for 3 days. After 3 days, the cells were washed with PBS, stained with Live/Dead Fixable Aqua for 25 minutes at 4°C, followed by 2% FBS in PBS wash. Cells were then fixed and permeabilized in FoxP3 Fix/Perm buffer (E-Bioscience, catalog 005523) for 45 minutes at 4°C, followed by FoxP3 Perm buffer wash. The samples were stained with 2 different anti-p24 antibodies, (KC57-PE/ Beckman Coulter, 6604667, and a28B7-APC Medimabs, MM-0289-APC) diluted 1:1000 in FoxP3 Perm buffer for 45 minutes at 4°C, washed with FoxP3 Perm buffer, and resuspended in PBS. The samples were run on the BD LSR Fortessa II flow cytometer. The data were analyzed using FlowJo version 10.7.1.
Supplementary file ppat.1012874.s012.png: S9 Fig C-233 induces HIV activation in CD4^+ T cells from ART-suppressed people with HIV. […]

[2] = system: CD4+ T cells from ART-suppressed people with HIV; experiment: Cell viability (Cell Titer Glo); type: cell-based, human; details: 72 hours, doses that activated HIV RNA
Procedure: Supplementary file ppat.1012874.s011.png: S8 Fig Effect of C-233 on cell viability. CD4^+ T cells from ART-suppressed people with HIV were treated with the indicated C-233 concentrations for 72 hours. Cell viability was assessed using Promega Cell Titer Glo according to manufacturer’s instructions. Bars indicate the means and lines indicate standard deviation from 4 donors, each tested with 8 replicates. (PNG)

Sequence of PKC-β1 (P05771 whole entry, canonical isoform): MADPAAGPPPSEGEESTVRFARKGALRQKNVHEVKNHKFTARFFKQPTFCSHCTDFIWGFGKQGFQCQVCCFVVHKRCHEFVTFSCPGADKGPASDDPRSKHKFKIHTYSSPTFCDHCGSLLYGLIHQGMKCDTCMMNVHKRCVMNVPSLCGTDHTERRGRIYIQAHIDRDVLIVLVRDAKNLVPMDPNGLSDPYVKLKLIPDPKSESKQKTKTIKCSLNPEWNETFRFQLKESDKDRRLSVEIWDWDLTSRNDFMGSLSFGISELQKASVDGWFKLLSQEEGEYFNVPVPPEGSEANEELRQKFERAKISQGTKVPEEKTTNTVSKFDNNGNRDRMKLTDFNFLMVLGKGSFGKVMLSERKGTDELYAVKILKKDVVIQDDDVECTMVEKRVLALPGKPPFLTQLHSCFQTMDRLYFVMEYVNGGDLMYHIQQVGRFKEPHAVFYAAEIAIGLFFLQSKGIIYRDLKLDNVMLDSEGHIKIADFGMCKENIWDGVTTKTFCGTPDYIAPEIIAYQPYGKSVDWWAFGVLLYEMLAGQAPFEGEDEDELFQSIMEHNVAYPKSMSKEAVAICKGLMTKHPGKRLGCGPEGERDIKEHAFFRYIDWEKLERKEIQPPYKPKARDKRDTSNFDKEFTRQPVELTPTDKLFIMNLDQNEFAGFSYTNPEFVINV
Sequence of PKC-θ (Q04759 whole entry): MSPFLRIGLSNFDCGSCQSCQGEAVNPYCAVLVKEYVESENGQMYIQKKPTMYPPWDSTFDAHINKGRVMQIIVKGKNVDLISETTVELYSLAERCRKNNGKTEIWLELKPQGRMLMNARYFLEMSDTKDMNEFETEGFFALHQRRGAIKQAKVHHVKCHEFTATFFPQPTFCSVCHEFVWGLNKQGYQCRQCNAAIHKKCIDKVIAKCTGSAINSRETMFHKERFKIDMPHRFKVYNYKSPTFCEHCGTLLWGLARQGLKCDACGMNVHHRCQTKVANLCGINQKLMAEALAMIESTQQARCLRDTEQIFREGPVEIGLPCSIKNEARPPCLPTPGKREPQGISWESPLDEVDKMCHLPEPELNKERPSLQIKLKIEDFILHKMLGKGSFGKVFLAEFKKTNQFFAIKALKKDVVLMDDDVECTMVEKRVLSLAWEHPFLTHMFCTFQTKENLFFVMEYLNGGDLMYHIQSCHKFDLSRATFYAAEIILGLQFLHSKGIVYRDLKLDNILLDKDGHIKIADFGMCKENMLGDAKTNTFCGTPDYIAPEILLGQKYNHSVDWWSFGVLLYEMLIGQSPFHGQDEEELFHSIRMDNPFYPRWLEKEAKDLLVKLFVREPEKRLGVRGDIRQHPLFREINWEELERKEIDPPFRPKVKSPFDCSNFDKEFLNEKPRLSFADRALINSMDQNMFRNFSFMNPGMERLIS
Sequence of PKC-β2 (P05771 1-673 isoform P05771-2): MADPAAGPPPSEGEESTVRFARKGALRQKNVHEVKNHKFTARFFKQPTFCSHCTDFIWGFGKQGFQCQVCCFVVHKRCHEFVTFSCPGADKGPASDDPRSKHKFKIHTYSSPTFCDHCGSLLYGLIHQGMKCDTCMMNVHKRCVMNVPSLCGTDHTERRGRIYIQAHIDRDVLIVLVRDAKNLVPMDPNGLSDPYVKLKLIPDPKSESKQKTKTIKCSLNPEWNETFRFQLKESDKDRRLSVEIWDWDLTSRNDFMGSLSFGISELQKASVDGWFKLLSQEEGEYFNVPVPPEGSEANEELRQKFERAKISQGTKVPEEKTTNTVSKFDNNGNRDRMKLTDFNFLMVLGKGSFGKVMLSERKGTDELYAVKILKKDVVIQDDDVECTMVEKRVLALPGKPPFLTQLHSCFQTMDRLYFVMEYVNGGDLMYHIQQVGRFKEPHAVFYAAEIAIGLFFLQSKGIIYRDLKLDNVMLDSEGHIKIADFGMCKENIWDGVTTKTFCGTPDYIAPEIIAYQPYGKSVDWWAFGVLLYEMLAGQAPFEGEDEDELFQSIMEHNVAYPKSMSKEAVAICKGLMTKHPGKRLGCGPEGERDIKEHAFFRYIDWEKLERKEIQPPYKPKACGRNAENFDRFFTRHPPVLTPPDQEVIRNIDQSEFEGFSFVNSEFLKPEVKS

In the case of `Cc1ccc(C#Cc2ccc3oc(CC(C)(C)C(=O)OCC4(CO)CC(=CCC(CC(C)C)CC(C)C)C(=O)O4)cc3c2)cc1` (stereo not shown) [C-232A], the “translocation of endogenous PKC-θ from cytoplasm to cell edge” value (PKC-θ) is reported as “efficient translocation of endogenous PKC-θ to the plasmalemma”, the EC50 (PKC-β1) is reported as 3.28 µM and the EC50 (PKC-β2) is reported as 2.26 µM. For the same molecule, the EC50 (PKC-γ) was 11.5 µM.

In the case of `Cc1ccc(C#Cc2ccc(C(=O)OCC3(CO)Cc4c(-c5ccccc5)ccnc4O3)cc2)cc1` (stereo not shown) [C-233], the EC50 (HIV p24) is reported as 0.428 µM, the “HIV protein production (supernatant p24 and cellular p24 by HIV-Flow)” value [1] is reported as “activated production of viral protein” and the cell viability [2] is reported as “without impairing viability”.
